# Assay results from US20050209278A1, “Piperidinyl- and piperazinyl-sulfonylmethyl hydroxamic acids and their use as protease inhibitors” (priority 2002, published 2005).
# Like-named read-outs stand apart in the source and are kept apart here.
# Legend:
# MMP-2 = biological target: T1, MMP-2 (Homo sapiens, UniProt P08253); assay: In vitro MMP inhibition, Ki determination (fluorogenic substrate II); assay type: biochemical; settings: read-out: MMP-2 Ki
# T1 construct: made in house; host or cells: MMP-2-transfected p2AHT2 cells
# T1 sequence (P08253 110-660): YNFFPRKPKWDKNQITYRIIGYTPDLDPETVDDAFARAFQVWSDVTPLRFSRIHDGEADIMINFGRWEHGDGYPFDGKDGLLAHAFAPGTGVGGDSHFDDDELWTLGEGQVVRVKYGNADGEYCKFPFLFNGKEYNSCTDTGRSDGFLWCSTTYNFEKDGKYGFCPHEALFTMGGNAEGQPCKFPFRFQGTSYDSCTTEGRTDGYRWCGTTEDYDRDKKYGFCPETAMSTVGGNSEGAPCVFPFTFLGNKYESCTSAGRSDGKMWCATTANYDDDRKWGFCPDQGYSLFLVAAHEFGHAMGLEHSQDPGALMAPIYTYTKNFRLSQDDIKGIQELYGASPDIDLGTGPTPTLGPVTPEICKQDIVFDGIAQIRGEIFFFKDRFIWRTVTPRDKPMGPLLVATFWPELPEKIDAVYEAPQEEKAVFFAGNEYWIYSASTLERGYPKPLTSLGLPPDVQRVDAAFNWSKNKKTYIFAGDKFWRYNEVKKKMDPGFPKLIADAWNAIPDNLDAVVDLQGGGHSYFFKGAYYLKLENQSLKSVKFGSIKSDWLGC
# MMP-1 = biological target: T2, MMP-1 (Homo sapiens, UniProt P03956); assay: as above; assay type: biochemical; settings: read-out: MMP-1 Ki
# T2 construct: made in house; host or cells: MMP-1-transfected HT-1080 cells (spent media)
# T2 sequence (P03956 100-469): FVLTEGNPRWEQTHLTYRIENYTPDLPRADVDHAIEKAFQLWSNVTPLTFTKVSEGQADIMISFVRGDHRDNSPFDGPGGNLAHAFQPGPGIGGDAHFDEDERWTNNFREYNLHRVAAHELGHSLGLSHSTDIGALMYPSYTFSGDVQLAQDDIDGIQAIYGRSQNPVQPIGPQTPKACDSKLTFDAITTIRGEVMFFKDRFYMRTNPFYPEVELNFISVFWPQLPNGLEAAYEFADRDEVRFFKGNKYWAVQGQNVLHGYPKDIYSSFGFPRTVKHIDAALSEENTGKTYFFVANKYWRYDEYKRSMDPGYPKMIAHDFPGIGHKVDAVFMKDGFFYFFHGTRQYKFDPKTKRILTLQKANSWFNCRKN
Ki (MMP-2; value not in parenthesis),Ki (MMP-1; value not in parenthesis),Ki (MMP-2; value outside parentheses),Ki (MMP-1; value outside parentheses),SMILES
,,0.42 nM,> 10000 nM,CCCCOc1ccc(N2CCN(S(=O)(=O)C3(C(=O)NO)CCN(C(=O)c4ccccn4)CC3)CC2)cc1 [Example 277]
,,0.668 nM,7470 nM,CCCCOc1ccc(N2CCN(S(=O)(=O)C3(C(=O)NO)CCN(C(=O)CO)CC3)CC2)cc1 [Example 271]
,,8.76 nM,> 10000 nM,CCCCOc1ccc(N2CCN(S(=O)(=O)C3(C(=O)NO)CCN(c4ccc(C)cc4)CC3)CC2)cc1 [Example 295]
,,9.64 nM,> 10000 nM,CCCCOc1ccc(N2CCN(S(=O)(=O)C3(C(=O)NO)CCN(c4ccc(C(F)(F)F)cn4)CC3)CC2)cc1 [Example 257]
,,0.5 nM,> 10000 nM,CCCCOc1ccc(N2CCN(S(=O)(=O)C3(C(=O)NO)CCN(C(C)=O)CC3)CC2)cc1 [Example 282]
,,0.761 nM,> 10000 nM,CCCCOc1ccc(N2CCN(S(=O)(=O)C3(C(=O)NO)CCN(C(N)=O)CC3)CC2)cc1 [Example 253]
,,0.422 nM,> 10000 nM,CCCCOc1ccc(N2CCN(S(=O)(=O)C3(C(=O)NO)CCN(C(=O)c4cccnc4)CC3)CC2)cc1 [Example 266]
,,22.5 nM,> 10000 nM,CCCCOc1ccc(N2CCN(S(=O)(=O)C3(C(=O)NO)CCN(c4ccc(Cl)cc4)CC3)CC2)cc1 [Example 251]
,,0.176 nM,> 10000 nM,CCCCc1ccc(N2CCN(S(=O)(=O)C3(C(=O)NO)CCN(CCOC)CC3)CC2)nc1 [Example 270]
,,0.309 nM,> 10000 nM,CCCCOc1ccc(N2CCN(S(=O)(=O)C3(C(=O)NO)CCN(C(=O)N(C)C)CC3)CC2)cc1 [Example 254]
,,5.17 nM,> 10000 nM,CCCCOc1ccc(N2CCN(S(=O)(=O)C3(C(=O)NO)CCNCC3)CC2)cc1F [Example 286]
,,0.467 nM,> 10000 nM,CCCCOc1ccc(N2CCN(S(=O)(=O)C3(C(=O)NO)CCN(C(=O)C4CC4)CC3)CC2)cc1 [Example 260]
,,9.44 nM,> 10000 nM,COCCN1CCC(C(=O)NO)(S(=O)(=O)N2CCN(c3ccc(Oc4ccccc4)cc3)CC2)CC1 [Example 287]
,,8.23 nM,> 10000 nM,CCCCOc1ccc(N2CCN(S(=O)(=O)C3(C(=O)NO)CCN(c4ccccc4)CC3)CC2)cc1 [Example 264]
,,3.27 nM,> 10000 nM,CCCCOc1ccc(N2CCN(S(=O)(=O)C3(C(=O)NO)CCN(CC4CC4)CC3)CC2)cc1 [Example 298]
6.92 nM,> 10000 nM,,,CCCCOc1ccc(N2CCN(S(=O)(=O)C3(C(=O)NO)CCN(c4nc5ccccc5s4)CC3)CC2)cc1 [Example 93]

Ki (MMP-2; value not in parenthesis),Ki (MMP-1; value not in parenthesis),Ki (MMP-2; value outside parentheses),Ki (MMP-1; value outside parentheses),SMILES
0.54 nM,> 10000 nM,,,COCCN1CCC(C(=O)NO)(S(=O)(=O)N2CCN(c3ccc(OCCCCF)cc3)CC2)CC1 [Example 88]
,,0.769 nM,> 10000 nM,CCCCOc1ccc(N2CCN(S(=O)(=O)C3(C(=O)NO)CCN(c4ccc(Cl)nn4)CC3)CC2)cc1 [Example 281]
,,0.81 nM,> 10000 nM,CCCCOc1ccc(N2CCN(S(=O)(=O)C3(C(=O)NO)CCN(C(=O)CCCC)CC3)CC2)cc1 [Example 278]
,,0.468 nM,> 10000 nM,CCCCOc1ccc(N2CCN(S(=O)(=O)C3(C(=O)NO)CCN(C(=O)c4ccncc4)CC3)CC2)cc1 [Example 259]
,,0.381 nM,> 10000 nM,CCCCOc1ccc(N2CCN(S(=O)(=O)C3(C(=O)NO)CCN(c4ccc(C)nn4)CC3)CC2)cc1 [Example 275]
,,5.7 nM,> 10000 nM,CCCCOc1ccc(N2CCN(S(=O)(=O)C3(C(=O)NO)CCNCC3)CC2)cc1 [Example 276]
,,0.826 nM,> 10000 nM,CCCCOc1ccc(N2CCN(S(=O)(=O)C3(C(=O)NO)CCN(C(=O)CC)CC3)CC2)cc1 [Example 274]
,,0.662 nM,> 10000 nM,CCCCCc1ccc(N2CCN(S(=O)(=O)C3(C(=O)NO)CCN(C4CC4)CC3)CC2)cc1 [Example 272]
,,2.76 nM,> 10000 nM,CCCCOc1ccc(N2CCN(S(=O)(=O)C3(C(=O)NO)CCN(C)CC3)CC2)cc1 [Example 280]
6.69 nM,> 10000 nM,,,CCCCOc1ccc(N2CCN(S(=O)(=O)C3(C(=O)NO)CCN(C(=O)OCC(C)(C)C)CC3)CC2)cc1 [Example 97]
,,1.68 nM,> 10000 nM,C#CCN1CCC(C(=O)NO)(S(=O)(=O)N2CCN(c3ccc(OCCCC)cc3)CC2)CC1 [Example 303]
,,0.564 nM,9320 nM,CCCCOc1ccc(N2CCN(S(=O)(=O)C3(C(=O)NO)CCN(C(=O)COC)CC3)CC2)cc1 [Example 268]
,,1.55 nM,> 10000 nM,CCCCOc1ccc(N2CCN(S(=O)(=O)C3(C(=O)NO)CCN(Cc4ccccc4)CC3)CC2)cc1F [Example 285]
0.5 nM,> 10000 nM,,,C#CCOC(=O)N1CCC(C(=O)NO)(S(=O)(=O)N2CCN(c3ccc(OCCCC)cc3)CC2)CC1 [Example 98]
,,1.11 nM,> 10000 nM,CC(C)CCOc1ccc(N2CCN(S(=O)(=O)C3(C(=O)NO)CCOCC3)CC2)cc1 [Example 279]

# Second part, the molecule before the results:
SMILES,Ki (MMP-2; value not in parenthesis),Ki (MMP-1; value not in parenthesis),Ki (MMP-2; value outside parentheses),Ki (MMP-1; value outside parentheses)
O=C(NO)C1(S(=O)(=O)N2CCN(c3ccc(COCC(F)(F)F)cc3)CC2)CCOCC1 [Example 72],2.44 nM,> 10000 nM,,
CC(C)COc1ccc(N2CCN(S(=O)(=O)C3(C(=O)NO)CCOCC3)CC2)cc1Cl [Example 79],10.1 nM,> 10000 nM,,
COCCN1CCC(C(=O)NO)(S(=O)(=O)N2CCC(c3ccc(CCC(F)(F)C(F)(F)F)cc3)CC2)CC1 [Example 312],,,0.52 nM,> 10000 nM
O=C(NO)C1(S(=O)(=O)N2CCN(c3ccc(OC4CCC4)c(F)c3)CC2)CCOCC1 [Example 73],2.2 nM,> 10000 nM,,
CCCCc1ccc(N2CCN(S(=O)(=O)C3(C(=O)NO)CCN(c4cccnc4)CC3)CC2)nc1 [Example 96],0.2 nM,> 10000 nM,,
O=C(NO)C1(S(=O)(=O)N2CCN(c3ccc(OCc4ccccc4)cn3)CC2)CCOCC1 [Example 74],0.5 nM,3210 nM,,
O=C(NO)C1(S(=O)(=O)N2CCN(c3ccc(-c4ccccc4)cc3)CC2)CCOCC1 [Example 76],0.19 nM,1340 nM,,
O=C(NO)C1(S(=O)(=O)N2CCN(c3cccc(C(F)(F)F)c3)CC2)CCOCC1 [Example 82],8.74 nM,> 10000 nM,,
O=C(NO)C1(S(=O)(=O)N2CCN(c3ccc(SC(F)(F)F)cc3)CC2)CCS(=O)(=O)CC1 [Example 258],,,4.06 nM,> 10000 nM
CCCCc1ccc(N2CCN(S(=O)(=O)C3(C(=O)NO)CCOCC3)CC2)c(F)c1 [Example 91],1.22 nM,5110 nM,,
COCCN1CCC(C(=O)NO)(S(=O)(=O)N2CCC(c3ncc(CC(C)C)s3)CC2)CC1 [Example 311],,,103 nM,> 10000 nM
Cc1cc(N2CCN(S(=O)(=O)C3(C(=O)NO)CCOCC3)CC2)ccc1OC(C)C [Example 299],,,22.5 nM,> 10000 nM
CCc1ccc(N2CCN(S(=O)(=O)C3(C(=O)NO)CCCC3)CC2)nc1 [Example 261],,,0.276 nM,632 nM
CS(=O)(=O)c1ccc(N2CCN(S(=O)(=O)C3(C(=O)NO)CCOCC3)CC2)cc1 [Example 300],,,67.1 nM,> 10000 nM
O=C(NO)C1(S(=O)(=O)N2CCN(c3ccc(OCCCC(F)(F)F)cn3)CC2)CCOCC1 [Example 83],0.251 nM,2850 nM,,
COCCN1CCC(C(=O)NO)(S(=O)(=O)N2CCC(c3ccc(CCCC(F)(F)F)cc3)CC2)CC1 [Example 310],,,0.919 nM,> 10000 nM
CCCCc1ccc(N2CCN(S(=O)(=O)C3(C(=O)NO)CCN(c4ncccn4)CC3)CC2)nc1 [Example 99],0.17 nM,8300 nM,,
CCc1ccc(N2CCN(S(=O)(=O)C3(C(=O)NO)CCCCC3)CC2)nc1 [Example 263],,,0.188 nM,605 nM
O=C(NO)C1(S(=O)(=O)N2CCC(c3ccc(-c4ccc(F)cc4F)cn3)CC2)CCOCC1 [Example 308],,,6.36 nM,6780 nM
O=C(NO)C1(S(=O)(=O)N2CCN(c3ccc(CCC(F)(F)F)cc3)CC2)CCOCC1 [Example 77],0.38 nM,> 10000 nM,,
CCCCCc1ccc(N2CCN(S(=O)(=O)C3(C(=O)NO)CCN(c4ncccn4)CC3)CC2)nc1 [Example 95],0.64 nM,> 10000 nM,,
COCCN1CCC(C(=O)NO)(S(=O)(=O)N2CCC(c3ccc(CCC(F)(F)F)cc3)CC2)CC1 [Example 309],,,0.328 nM,> 10000 nM
CCCCc1ccc(C2CCN(S(=O)(=O)C3(C(=O)NO)CCN(CCOC)CC3)CC2)s1 [Example 55],2.2 nM,> 10000 nM,,
